Active and inactive are the calls of the source.
How the values were obtained:
[1] = target: T1, Corticotropin-releasing factor receptor 2/Corticotropin-releasing factor-binding protein (Homo sapiens, UniProt P24387+Q13324); experiment: Dose Response confirmation of uHTS hits for small molecule antagonists of the CRF-binding protein and CRF-R2 receptor complex.; assay type: functional; conditions: read-out: IC50_Mean
T1 sequence (Q13324 whole entry): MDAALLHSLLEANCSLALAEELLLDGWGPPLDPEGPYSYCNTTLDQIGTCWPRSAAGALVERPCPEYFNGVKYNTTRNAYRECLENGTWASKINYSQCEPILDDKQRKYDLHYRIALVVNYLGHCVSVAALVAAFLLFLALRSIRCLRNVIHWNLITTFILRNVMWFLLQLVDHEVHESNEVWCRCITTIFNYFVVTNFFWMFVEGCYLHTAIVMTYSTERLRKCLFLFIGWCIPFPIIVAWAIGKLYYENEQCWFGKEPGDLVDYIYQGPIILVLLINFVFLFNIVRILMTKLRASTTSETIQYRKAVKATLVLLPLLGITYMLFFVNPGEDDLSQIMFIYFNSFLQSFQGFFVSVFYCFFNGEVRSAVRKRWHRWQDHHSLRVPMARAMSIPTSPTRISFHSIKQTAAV
T1 sequence (P24387 whole entry): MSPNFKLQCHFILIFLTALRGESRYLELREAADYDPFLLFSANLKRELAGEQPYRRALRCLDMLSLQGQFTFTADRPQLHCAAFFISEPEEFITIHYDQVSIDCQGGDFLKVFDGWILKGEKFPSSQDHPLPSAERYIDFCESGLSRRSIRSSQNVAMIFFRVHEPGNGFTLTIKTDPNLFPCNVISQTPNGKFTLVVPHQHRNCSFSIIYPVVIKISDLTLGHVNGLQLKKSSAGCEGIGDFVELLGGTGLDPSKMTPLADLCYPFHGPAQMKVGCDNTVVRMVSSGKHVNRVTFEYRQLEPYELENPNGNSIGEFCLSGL

[2] = target: T1, Corticotropin-releasing factor receptor 2/Corticotropin-releasing factor-binding protein; experiment: activators of CRF receptor 2 with binding protein – uHTS hits, confirmation (AID 602473); assay type: functional; conditions: read-out: EC50_Mean
[3] = blockers of CRF-binding protein–CRF-R2 complex – cell-based, uHTS hits, 384-well, dose response (AID 651639); assay type: functional, Homo sapiens; conditions: read-out: IC50_Mean
[4] = A549 cell cytotoxicity, dose response, cytotoxicity control, plate reader, cherry-pick, antagonist series (AID 743412); assay type: functional, cell-based
[5] = toxicity toward HepG2 liver cells – cell-based, plate reader, cherry-pick, antagonist series, cytotoxicity control, dose response (AID 743416); assay type: functional
[6] = blockers of bursicon-stimulated LGR2 cAMP reporter – cell-based, HEK293, CRE-luciferase reporter, cherry pick, set 2, dose response (AID 743343); assay type: functional;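 also: transfected cells were stimulated with diluted bursicon conditioned medium after compound addition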
[7] = viability loss in HEK293 cells – cell-based, plate reader, cherry-picked samples, cytotoxicity control, dose response (AID 743446); assay type: functional
[8] = cells; assay type: functional, cell-based
[9] = target: T2, Nuclear receptor subfamily 0 group B member 1 (Homo sapiens, UniProt P51843); assay type: functional, cell-based;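 also: HEK293T cells transfected with SF-1 and DAX-1 plus StAR promoter luciferase reporter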
T2 sequence (P51843 whole entry): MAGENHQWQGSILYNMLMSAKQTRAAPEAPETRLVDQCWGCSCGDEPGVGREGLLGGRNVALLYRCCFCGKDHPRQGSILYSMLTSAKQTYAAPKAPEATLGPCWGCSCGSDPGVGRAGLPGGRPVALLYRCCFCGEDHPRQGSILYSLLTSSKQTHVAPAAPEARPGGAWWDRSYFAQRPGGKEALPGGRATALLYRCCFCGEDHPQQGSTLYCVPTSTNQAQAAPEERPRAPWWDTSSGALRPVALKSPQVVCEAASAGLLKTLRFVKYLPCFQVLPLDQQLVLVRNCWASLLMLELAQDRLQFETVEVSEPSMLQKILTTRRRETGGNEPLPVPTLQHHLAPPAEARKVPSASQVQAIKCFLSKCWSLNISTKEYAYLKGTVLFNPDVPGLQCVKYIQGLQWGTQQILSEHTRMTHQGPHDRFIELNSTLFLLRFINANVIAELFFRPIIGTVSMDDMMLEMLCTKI

[10] = target: T3, Low molecular weight phosphotyrosine protein phosphatase (Homo sapiens, UniProt P24666); assay type: functional; conditions: read-out: IC50_Mean
T3 sequence (P24666 whole entry): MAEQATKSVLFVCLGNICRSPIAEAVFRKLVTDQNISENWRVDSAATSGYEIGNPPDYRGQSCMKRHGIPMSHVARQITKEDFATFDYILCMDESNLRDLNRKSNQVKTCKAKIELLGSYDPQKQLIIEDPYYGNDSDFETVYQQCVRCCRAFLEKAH

[11] = target: T3, Low molecular weight phosphotyrosine protein phosphatase; assay type: functional; conditions: read-out: IC50_Mean; remark: listed apart in the source
[12] = target: Induced myeloid leukemia cell differentiation protein Mcl-1 (Homo sapiens, UniProt Q07820); assay type: functional
Sequence of Induced myeloid leukemia cell differentiation protein Mcl-1 (Q07820 whole entry): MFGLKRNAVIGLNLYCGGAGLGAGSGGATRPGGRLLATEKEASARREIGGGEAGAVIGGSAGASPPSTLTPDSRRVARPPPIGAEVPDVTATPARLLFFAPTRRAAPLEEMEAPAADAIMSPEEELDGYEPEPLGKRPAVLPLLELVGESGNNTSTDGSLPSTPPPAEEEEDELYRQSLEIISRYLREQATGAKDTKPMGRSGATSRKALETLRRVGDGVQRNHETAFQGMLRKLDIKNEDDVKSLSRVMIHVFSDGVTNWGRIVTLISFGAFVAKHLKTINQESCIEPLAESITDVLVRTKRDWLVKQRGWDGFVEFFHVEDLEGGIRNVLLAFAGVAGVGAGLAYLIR

[13] = target: Long-chain-fatty-acid--AMP ligase FadD28 (Mycobacterium tuberculosis, UniProt P9WQ59); experiment: Fluorescence polarization aasay to screen for inhibitors that compete for the binding of FadD28 to a bisubstrate Measured in Biochemical System Using Plate Reader - 2147-01_Inhibitor_Dose_CherryPick_Activity.; assay type: functional, Mycobacterium tuberculosis H37Rv
Sequence of Long-chain-fatty-acid--AMP ligase FadD28 (P9WQ59 whole entry): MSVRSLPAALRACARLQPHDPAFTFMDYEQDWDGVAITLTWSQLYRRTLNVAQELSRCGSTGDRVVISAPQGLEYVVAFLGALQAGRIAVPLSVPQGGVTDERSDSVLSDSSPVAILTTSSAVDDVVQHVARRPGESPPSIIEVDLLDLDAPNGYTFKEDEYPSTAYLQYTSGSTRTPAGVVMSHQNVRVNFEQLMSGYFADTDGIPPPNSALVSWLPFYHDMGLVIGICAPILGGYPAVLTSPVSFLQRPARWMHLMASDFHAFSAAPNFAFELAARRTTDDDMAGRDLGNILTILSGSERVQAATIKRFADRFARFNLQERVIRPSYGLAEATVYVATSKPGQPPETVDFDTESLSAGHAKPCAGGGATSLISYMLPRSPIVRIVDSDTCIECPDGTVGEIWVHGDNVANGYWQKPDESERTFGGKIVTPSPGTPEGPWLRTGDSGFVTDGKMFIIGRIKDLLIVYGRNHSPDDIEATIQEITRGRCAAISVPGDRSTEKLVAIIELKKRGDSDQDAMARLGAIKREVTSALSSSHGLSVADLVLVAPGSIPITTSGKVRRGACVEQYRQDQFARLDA

[14] = target: DNA dC->dU-editing enzyme APOBEC-3A (Homo sapiens, UniProt P31941); experiment: Dose Response confirmation of small molecule APOBEC3A DNA Deaminase Inhibitors via a fluorescence-based single-stranded DNA deaminase assay. [Related pubchem assays (depositor defined):AID493011, AID493024]; assay type: functional
Sequence of DNA dC->dU-editing enzyme APOBEC-3A (P31941 whole entry): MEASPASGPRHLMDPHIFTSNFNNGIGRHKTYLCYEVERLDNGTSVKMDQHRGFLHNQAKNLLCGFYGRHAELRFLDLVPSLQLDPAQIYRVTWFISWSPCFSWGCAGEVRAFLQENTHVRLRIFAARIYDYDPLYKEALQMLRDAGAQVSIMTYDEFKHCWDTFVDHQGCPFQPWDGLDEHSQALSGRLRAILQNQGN

[15] = target: DNA dC->dU-editing enzyme APOBEC-3G (Homo sapiens, UniProt Q9HC16); assay type: functional;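 also: Dose-response counterscreen measuring inhibition of APOBEC3G DNA deaminase activity, run while confirming APOBEC3A inhibitors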
Sequence of DNA dC->dU-editing enzyme APOBEC-3G (Q9HC16 whole entry): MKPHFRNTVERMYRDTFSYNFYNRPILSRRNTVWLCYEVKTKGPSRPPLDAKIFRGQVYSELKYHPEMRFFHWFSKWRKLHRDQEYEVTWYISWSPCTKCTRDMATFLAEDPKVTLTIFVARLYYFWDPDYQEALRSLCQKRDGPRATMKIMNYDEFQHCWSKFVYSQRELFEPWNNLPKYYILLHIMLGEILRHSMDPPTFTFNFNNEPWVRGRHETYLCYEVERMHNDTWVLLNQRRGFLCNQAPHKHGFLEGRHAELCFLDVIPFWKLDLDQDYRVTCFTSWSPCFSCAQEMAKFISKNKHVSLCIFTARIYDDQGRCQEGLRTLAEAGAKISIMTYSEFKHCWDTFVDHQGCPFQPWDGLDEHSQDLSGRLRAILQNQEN

[16] = target: T4, Small ubiquitin-related modifier 1 (Homo sapiens, UniProt P63165); experiment: SUMO1 protein interaction blockers, potency – biochemical, fluorescence polarization, uHTS hits, dose response (AID 624382); assay type: functional; conditions: read-out: IC50_Mean
T4 sequence (P63165 whole entry): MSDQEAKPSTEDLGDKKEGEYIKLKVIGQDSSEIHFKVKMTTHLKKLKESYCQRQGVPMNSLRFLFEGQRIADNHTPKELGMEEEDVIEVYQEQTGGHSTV

[17] = target: T4, Small ubiquitin-related modifier 1; experiment: SUMO1 protein-protein binding blockers, potency – biochemical, FRET, dose response (AID 624383); assay type: functional; conditions: read-out: IC50_Mean
[18] = target: Photoreceptor-specific nuclear receptor (Homo sapiens, UniProt Q9Y5X4); assay type: functional, cell-based;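 also: CHO-S cells with Gal4-NCOR and VP16-NR2E3 two-hybrid luciferase reporter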
Sequence of Photoreceptor-specific nuclear receptor (Q9Y5X4 whole entry, the tested form may be a part): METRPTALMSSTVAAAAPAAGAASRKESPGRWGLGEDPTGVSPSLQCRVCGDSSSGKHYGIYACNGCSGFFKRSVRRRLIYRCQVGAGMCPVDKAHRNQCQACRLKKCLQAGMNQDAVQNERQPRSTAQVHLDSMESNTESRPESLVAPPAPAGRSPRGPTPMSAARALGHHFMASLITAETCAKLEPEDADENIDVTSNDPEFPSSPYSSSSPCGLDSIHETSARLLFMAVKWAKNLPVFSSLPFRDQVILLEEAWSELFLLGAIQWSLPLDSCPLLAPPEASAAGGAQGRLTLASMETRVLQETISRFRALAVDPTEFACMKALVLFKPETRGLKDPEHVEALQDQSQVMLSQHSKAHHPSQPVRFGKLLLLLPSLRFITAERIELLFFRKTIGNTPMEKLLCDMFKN

Cc1cc(C(=O)CN2C(=O)NC(C)(CC(C)C)C2=O)c(C)n1-c1ccc2c(c1)OCO2 (centres undefined)
IC50 [1]: 12.8 µM (active) | EC50 [2]: > 53 µM (inactive) | IC50 [3]: 2.36 µM (active)

CCOCCCn1c(SCc2nc3ccccc3s2)nc2ccccc2c1=O
EC50 [2]: > 53 µM (inactive) | AC50 [4]: 29.8 µM (active) | AC50 [5]: > 52 µM (inactive) | AC50 [6]: 34.6 µM (active) | AC50 [7]: 5.44 µM (active)

O=C(COc1ccc(F)cc1)Nc1ccc2c(c1)OCCO2
IC50 [8]: > 67.6 µM (inactive) | IC50 [9]: > 67.6 µM (inactive)

Cc1csc2c(=O)sc(NC(=O)c3cccs3)nc12
IC50 [10]: 8.33 µM (active) | IC50 [11]: 36.9 µM (inactive)

Cc1ccc(NC2=NC(=O)S/C2=C\c2ccco2)cc1
IC50 [12]: 7.28 µM (active) | IC50 [10]: > 80 µM (inactive) | IC50 [11]: 23.9 µM (inactive)

CCOC(=O)c1ccc(NC(=O)Nc2ccc3c(c2)OCCO3)cc1
AC50 [13]: 59.3 µM (active)

O=C(COC(=O)c1ccc(F)c(S(=O)(=O)N2CCOCC2)c1)Nc1ccc2[nH]c(=O)[nH]c2c1
IC50 [14]: 16.1 µM (active) | IC50 [15]: 25.9 µM (active) | IC50 [16]: > 66.6 µM (inactive) | IC50 [17]: 20.5 µM (inactive)

OC[C@@H]1CN(Cc2ccc(-c3ccccc3)cc2)C[C@H](n2cnc3c(Nc4ccccc4)ncnc32)O1
IC50 [18]: 7.72 µM (active)

Cc1ccc([C@H]2C(C(=O)O)=CC[C@@H](c3ccc(C)cc3)N2S(=O)(=O)c2ccc(C)cc2)cc1
IC50 [1]: 34.5 µM (active) | EC50 [2]: 50.2 µM (active) | IC50 [3]: > 20 µM (inactive)

Reference: ChEMBL document CHEMBL1201862, “PubChem BioAssay data set” (2004)
